# Literature values, collected in patent US20210212952A1, “METHOD AND ENCAPSULATED SUBSTANCE FOR TREATING PAIN DUE TO A VARIETY OF DISEASES” (priority 2020, published 2021).
# Conditions: in vivo, po
smiles,measurement,value
"O=C1CC[C@@]2(O)[C@H]3Cc4ccc(O)c5c4[C@@]2(CCN3CC2CC2)[C@H]1O5 [Naltrexone, naltrexone]",absorbed into the blood stream,96%
